Where two headings read alike, the source gives them in different places.
Legend:
BEAS-2B = experiment: Alamar Blue cytotoxicity test, BEAS-2B; format: cell-based, Human; settings: 24 h incubation, read-out: IC50 values for BEAS-2B line
Procedure: The cytotoxicity of the tested chemical compounds MJ1–MJ20 was tested using the Alamar Blue test. The experiment was conducted on cell lines BEAS-2B (Figure 7), HCT116 (Figure 8), U2OS (Figure 9), MCF7 (Figure 10), SH-SY5Y (Figure 11), NHDF (Figure 12), and A549 (Figure 13). Cells were seeded in 96-well plates and incubated with the tested compounds for 24 h. The test result is the IC50 parameter, which is a measure of cytotoxic activity expressed by the concentration of the substance that causes the death of half of the analyzed cells compared to the control.
In cytotoxicity studies, the Alamar Blue test was used, which is based on the ability of living cells to reduce the non-fluorescent dye resazurin to fluorescent resorufin, which reflects the metabolic activity of cells. BEAS-2B, NHDF, HCT116, MCF7, A549, SH-SY5Y and U2OS cell lines were cultured under standard conditions, in DMEM medium supplemented with 10% FBS and 1% penicillin/streptomycin, at 37 °C, 5% CO2 and 95% humidity. Cells were seeded in 96-well plates at 1 × 10^4 cells per well and incubated for 24 h. Then, the tested compounds (MJ1–MJ20) were added at different concentrations (from 6.25 µM to 100 µM). The control contained cells untreated with the tested compounds. After 24 h of incubation, 10 µL of Alamar Blue solution was added to each well and incubated for another 2–4 h under the same conditions. The signal was measured spectrophotometrically at wavelengths of 570 nm (for resorufin) and 600 nm (for resazurin) or optionally fluorimetrically, using an excitation maximum of 570 nm and an emission maximum of 585 nm. The results were presented as percentage of cell survival relative to the control, calculating the ratio of absorbance or fluorescence of the sample to the control value. The Alamar Blue assay, due to its sensitivity and non-toxicity, allows for an accurate assessment of metabolic activity and cell survival in response to the tested quinobenzothiazines.

BCL2 gene = experiment: RT-qPCR BCL2 gene expression in BEAS-2B; format: cell-based, Human; settings: 24 h; for fold induction at 100 µM: Homo sapiens, reference gene RPL41, vs untreated control, read-out: Relative level of expression, BCL2 gene
Procedure: (§1) Real-time polymerase chain reaction was performed for the reference gene RPL41 (ribosomal protein L41) and the tested genes: BCL2, AIFM2, MDM2, IL6 and IL8. […] The BEAS-2B line was selected for the experiment. The expression level of selected genes was measured after 24 h of incubation with the tested substances MJ1–MJ20 at a concentration of 100 μM (Table 3).
The RT-qPCR experiment was performed for the BEAS-2B cell line. In this experiment, the BCL2 gene was studied, and RPL41 was used as the reference gene (Figure 14).
(§2) Gene expression studies used quantitative RT-qPCR to assess the effect of the tested quinobenzothiazines (MJ1–MJ20) on the expression of apoptosis-related genes (BCL2, AIFM2, MDM2) and pro-inflammatory cytokines (IL6, IL8) (Table 4).
(§3) BEAS-2B and HCT116 cells were seeded in 6-well plates at 2 × 10^5 cells per well and cultured in RPMI-1640 (BEAS-2B) or DMEM (HCT116) medium supplemented with 10% FBS and 1% penicillin/streptomycin at 37 °C, 5% CO2 and 95% humidity. After 24 h of incubation, the tested compounds were added at a concentration of 100 µM. After 24 h, the medium was removed from the cells, washed with PBS solution, 0.5 mL of trypsin was added per well and after 5 min it was neutralized with medium. The obtained cell suspension was centrifuged for 3 min at 2000 rpm, the supernatant was removed, and the obtained pellet was suspended in 400 µL of phenozol. Samples were frozen at −20 °C and stored until further experiment and RNA isolation.
(§4) Total RNA was isolated from cells using the A&A Biotechnology Total RNA Mini kit according to the manufacturer’s protocol. RNA quality and quantity were assessed using a NanoDrop 2000 spectrophotometer at 260/280 nm. Reverse transcription was performed using the protocol (EURx NG dART RT Kit) to obtain cDNA. After incubation, samples were placed in a freezer (−20 °C) and stored until further analysis.
(§5) The experiment was performed according to the protocol (Brilliant III Ultra Fast SYBR® Green QPCR Master Mix, Quick Reference Guide for the Bio-Rad CFX96 Real-Time PCR Detection System). RT-qPCR reaction was performed using specific primers for target genes (BCL2, AIFM2, MDM2, IL6, IL8). Gene expression was normalized to the expression of the reference gene RPL41. Reaction profiles and results were performed using Bio-Rad CFX Maestro 1.1 software from Bio-Rad. Analysis and calculations of the results obtained during RT-qPCR were performed using Microsoft Excel.
(§6) The results were analyzed using the R = 2^−ΔΔCt method, which allows for determining the relative level of gene expression (R) compared to the control. Each experiment was performed in three technical and biological replicates. RT-qPCR allowed for precise assessment of changes in the expression of genes related to the processes of apoptosis and inflammatory response under the influence of quinobenzothiazines, which allowed for identifying their potential mechanisms of action at the molecular level.

MDM2 gene = experiment: RT-qPCR MDM2 gene expression in BEAS-2B; format: cell-based, Human; settings: 24 h; for fold induction at 100 µM: Homo sapiens, reference gene RPL41, vs untreated control, read-out: Relative level of expression, MDM2 gene
Procedure: as §1
The RT-qPCR experiment was performed for the BEAS-2B cell line. In this experiment, the MDM2 gene was studied and RPL41 was used as reference gene (Figure 15).
as §2, §3, §4, §5, §6

AIFM2 gene = experiment: RT-qPCR AIFM2 gene expression in BEAS-2B; format: cell-based, Human; settings: Homo sapiens, 24 h, reference gene RPL41, vs untreated control, read-out: Relative level of expression, AIFM2 gene
Procedure: as §1
The RT-qPCR experiment was performed for the BEAS-2B cell line. In this experiment, the AIFM2 gene was studied and RPL41 was used as reference gene (Figure 16).
as §2, §3, §4, §5, §6

IL6 gene = experiment: RT-qPCR IL6 gene expression in BEAS-2B; format: cell-based, Human; settings: 24 h; for fold induction at 100 µM: Homo sapiens, reference gene RPL41, vs untreated control, read-out: Relative level of expression, IL6 gene
Procedure: as §1
(§7) The RT-qPCR experiment was performed for the BEAS-2B cell line. In this experiment, the IL6 and IL8 genes were studied and RPL41 was used as a reference gene (Figure 17 and Figure 18).
as §2, §3, §4, §5, §6

IL8 gene = experiment: RT-qPCR IL8 gene expression in BEAS-2B; format: cell-based; settings: Homo sapiens, 24 h, reference gene RPL41, vs untreated control, read-out: Relative level of expression, IL8 gene
Procedure: as §1, §7, §2, §3, §4, §5, §6

SMILES	IC50 (BEAS-2B; Homo sapiens, 24 h) [µM]	fold induction at 100 µM (BCL2 gene)	fold induction at 100 µM (MDM2 gene)	fold induction at 100 µM (AIFM2 gene)	fold induction at 100 µM (IL6 gene)	fold induction at 100 µM (IL8 gene)	BCL2 expression increase (BCL2 gene; 100 μM, compared to control) [fold]	IL6 expression increase (IL6 gene; 100 μM, compared to control) [fold]	IC50 (BEAS-2B) [µM]	MDM2 expression increase (MDM2 gene; 100 μM, compared to control) [fold]
Clc1ccc(Cn2cc(CN3c4ccc(Cl)cc4Sc4cc5ccccc5nc43)nn2)cc1 [MJ13, 9-Chloro-6-[(1-(4-chlorobenzyl)-1H-1,2,3-triazol-4-yl)methyl]-quino[3,2-b]benzo-[1,4]thiazine]	85.2	23.4	2.3	0.3	6.5	1.7				
CSc1ccc2c(c1)Sc1cc3ccccc3nc1N2Cc1cn(Cc2ccc(Cl)cc2)nn1 [MJ18, 9-Methylthio-6-[(1-(4-chlorobenzyl)-1H-1,2,3-triazol-4-yl)methyl]-quino[3,2-b]-benzo[1,4]thiazine]	74.1	41.5	7.1	1.7	20.5	4				
c1ccc(SCn2cc(CN3c4ccccc4Sc4cc5ccccc5nc43)nn2)cc1 [MJ5, 6-((1-((Phenylthio)methyl)-1H-1,2,3-triazol-4-yl)methyl)-quino[3,2-b]benzo[1,4]thiazine]	73	5	4.8	1.9	2.7	0.1				
N#Cc1ccc(Cn2cc(CN3c4ccc(F)cc4Sc4cc5ccccc5nc43)nn2)cc1 [MJ9, 4-((4-((9-Fluoroquino [3,2-b]benzo[1,4]thiazin-6-yl)methyl)-1H-1,2,3-triazol-1-yl)methyl)-benzonitrile]	73	9.8	5.6	4.5	4.3	0.9				
c1ccc(Cn2cc(CN3c4ccccc4Sc4cc5ccccc5nc43)nn2)cc1 [MJ1]	73.8	23	5.4	2.4	3	0.3				
CSc1ccc2c(c1)Sc1cc3ccccc3nc1N2Cc1cn(Cc2ccccc2)nn1 [MJ16, 9-Methylthio-6-[(1-benzyl-1H-1,2,3-triazol-4-yl)-methyl]-quino[3,2-b]benzo[1,4]thiazine]	84.7	41.3	6.1	1.3	11.4	5.1				
CSc1ccc2c(c1)Sc1cc3ccccc3nc1N2Cc1cn(CSc2ccccc2)nn1 [MJ20, 9-Methylthio-6-((1-((phenylthio)methyl)-1H-1,2,3-triazol-4-yl)methyl)-quino[3,2-b]benzo[1,4]thiazine]	83.7	69.4	7.7	2.8	83.4	6.6	69.4	83.4		
Fc1ccc(Cn2cc(CN3c4ccc(F)cc4Sc4cc5ccccc5nc43)nn2)cc1 [MJ7, 9-Fluoro-6-((1-(4-fluorobenzyl)-1H-1,2,3-triazol-4-yl)methyl)-quino[3,2-b]benzo[1,4]thiazine]	73.6	7.5	4.6	3.3	3.5	2.6				
Fc1ccc2c(c1)Sc1cc3ccccc3nc1N2Cc1cn(Cc2ccccc2)nn1 [MJ6, 9-Fluoro-6-[(1-benzyl-1H-1,2,3-triazol-4-yl)-methyl]-quino[3,2-b]benzo[1,4]thiazine]	72.9	8.5	5.1	1.8	3.2	0.1				
N#Cc1ccc(Cn2cc(CN3c4ccccc4Sc4cc5ccccc5nc43)nn2)cc1 [MJ4, 4-((4-((Quino[3,2-b]benzo[1,4]thiazin-6-yl)methyl)-1H-1,2,3-triazol-1-yl)methyl)benzonitrile]	64.5	9.3	4.3	1.4	3.1	0.8				
Fc1ccc2c(c1)Sc1cc3ccccc3nc1N2Cc1cn(CSc2ccccc2)nn1 [MJ10, 9-Fluoro-6-((1-((phenylthio)methyl)-1H-1,2,3-triazol-4-yl)methyl)-quino[3,2-b]-benzo[1,4]thiazine]	72.3	10.6	3.6	3.1	5.6	5.7				
Fc1ccc(Cn2cc(CN3c4ccc(Cl)cc4Sc4cc5ccccc5nc43)nn2)cc1 [MJ12, 9-Chloro-6-((1-(4-fluorobenzyl)-1H-1,2,3-triazol-4-yl)methyl)-quino[3,2-b]benzo-[1,4]thiazine]	75.6	25.9	3.8	0.6	6.2	4.9			75.6	
CSc1ccc2c(c1)Sc1cc3ccccc3nc1N2Cc1cn(Cc2ccc(F)cc2)nn1 [MJ17, 9-Methylthio-6-((1-(4-fluorobenzyl)-1H-1,2,3-triazol-4-yl)methyl)-quino[3,2-b]-benzo[1,4]thiazine]	72.6	33.9	11	2.5	28	5.7				11.0
N#Cc1ccc(Cn2cc(CN3c4ccc(Cl)cc4Sc4cc5ccccc5nc43)nn2)cc1 [MJ14, 4-((4-((9-Chloroquino[3,2-b]benzo[1,4]thiazin-6-yl)methyl)-1H-1,2,3-triazol-1-yl)methyl)-benzonitrile]	78.4	43	3.7	1.2	8.8	3.6				
